From patent US8664257B2, “Oxygen-substituted 3-heteroaroylamino-propionic acid derivatives and their use as pharmaceuticals” (Sanofi, priority 2010, dated 2014)
Read-outs that look alike come from different tables or passages of the source.

Target: T1, Recombinant human cathepsin A (Homo sapiens, UniProt P10619)
T1 construct: Recombinant human cathepsin A (residues 29-480, with a C-terminal 10-His tag); 10-His (C); purchased R&D Systems 1049-SE
T1 sequence (P10619 29-312 limits assumed): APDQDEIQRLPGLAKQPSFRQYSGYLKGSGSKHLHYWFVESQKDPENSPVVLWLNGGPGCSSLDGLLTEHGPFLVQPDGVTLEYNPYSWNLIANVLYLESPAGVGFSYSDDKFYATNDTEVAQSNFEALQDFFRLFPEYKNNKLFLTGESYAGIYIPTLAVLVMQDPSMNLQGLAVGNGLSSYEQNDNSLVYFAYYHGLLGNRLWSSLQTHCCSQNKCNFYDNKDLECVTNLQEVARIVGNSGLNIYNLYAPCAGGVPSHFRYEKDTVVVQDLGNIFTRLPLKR
T1 sequence (P10619 327-480 limits assumed): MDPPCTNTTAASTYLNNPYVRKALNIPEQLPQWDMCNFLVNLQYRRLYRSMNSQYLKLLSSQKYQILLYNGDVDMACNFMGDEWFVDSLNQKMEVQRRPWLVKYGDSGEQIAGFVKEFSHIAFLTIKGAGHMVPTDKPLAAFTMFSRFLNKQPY
Assay: Cathepsin A inhibitory activity
Type: biochemical
How it was run: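 Human cathepsin A (res. 29-480, C-His10) pre-activated with cathepsin L (MES pH 6.0, DTT, 15 min, 37 °C; quenched with 10 μM E-64). Enzyme (833 ng/ml) preincubated 15 min RT with compound in MES pH 5.5/DTT, then 2 μM Bodipy FL-bradykinin for 15 min RT. Capillary electrophoresis product/substrate peak areas; IC50 from % inhibition.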

[1] = recombinant human cathepsin A, read-out: Activity (2): Cathepsin A inhibitory activity, IC50 class
[2] = recombinant human cathepsin A 833 ng/ml, Bodipy FL-labeled bradykinin 2 μM, pH 5.5, read-out: CATH-A IC50
[3] = read-out: Activity (2): Cathepsin A inhibitory activity (IC50 class)

SMILES	IC50 [1] [nM]	IC50 [2] [nM]	IC50 [3] [nM]
Cc1c(F)cccc1C(CC(=O)O)NC(=O)c1cc(O)n(-c2ccc(F)cc2)n1 (centres unmarked) [Example 523, 3-(3-Fluoro-2-methyl-phenyl)-3-{[1-(4-fluoro-phenyl)-5-hydroxy-1H-pyrazole-3-carbonyl]-amino}-propionic acid]	100 to 1000		
O=C(O)CC(NC(=O)c1cc(O)n(-c2ccc(F)cc2)n1)c1cc(F)ccc1Cl (centres unmarked) [Example 524, 3-(2-Chloro-5-fluoro-phenyl)-3-{[1-(4-fluoro-phenyl)-5-hydroxy-1H-pyrazole-3-carbonyl]-amino}-propionic acid]	100 to 1000		
COc1ccc(F)cc1C(CC(=O)O)NC(=O)c1cc(O)n(-c2ccc(F)cc2)n1 (centres unmarked) [Example 525, 3-(5-Fluoro-2-methoxy-phenyl)-3-{[1-(4-fluoro-phenyl)-5-hydroxy-1H-pyrazole-3-carbonyl]-amino}-propionic acid]	1000 to 30000	1510	
Cc1ccc([C@H](CC(=O)O)NC(=O)c2cc(O)n(-c3ccc(F)cc3)n2)cc1 [Example 526, (S)-3-{[1-(4-Fluoro-phenyl)-5-hydroxy-1H-pyrazole-3-carbonyl]-amino}-3-p-tolyl-propionic acid]	100 to 1000	358	
O=C(O)CC(NC(=O)c1cc(O)n(-c2ccc(F)cc2)n1)c1ccc(-c2ccccn2)cc1 (centres unmarked) [Example 527, 3-{[1-(4-Fluoro-phenyl)-5-hydroxy-1H-pyrazole-3-carbonyl]-amino}-3-(4-pyridin-2-yl-phenyl)-propionic acid]	100 to 1000	152	
O=C(O)C[C@H](NC(=O)c1cc(O)n(-c2ccc(F)cc2)n1)c1ccccc1Cl [Example 528, (S)-3-(2-Chloro-phenyl)-3-{[1-(4-fluoro-phenyl)-5-hydroxy-1H-pyrazole-3-carbonyl]-amino}-propionic acid]	100 to 1000	413	
COc1ccc(-c2ccc(C(CC(=O)O)NC(=O)c3cc(O)n(-c4ccccc4F)n3)cc2)cn1 (centres unmarked) [Example 531]	100 to 1000		
Cc1ccccc1[C@H](CC(=O)O)NC(=O)c1cc(O)n(-c2ccccc2C)n1 [Example 532]	< 100		
Cc1ccccc1[C@H](CC(=O)O)NC(=O)c1cc(O)n(Cc2ccccc2)n1 [Example 533]	100 to 1000		
COc1cc(C(=O)N[C@@H](CC(=O)O)c2ccccc2C)nn1-c1ccccc1 [Example 534, (S)-3-[(5-Methoxy-1-phenyl-1H-pyrazole-3-carbonyl)-amino]-3-o-tolyl-propionic acid]	< 100		
O=C(O)CC(NC(=O)c1cc(O)n(-c2ccccc2F)n1)c1ccccc1 (centres unmarked) [Example 535]	100 to 1000		
Cc1ccccc1-n1nc(C(=O)NC(CC(=O)O)c2ccc(-c3ccc(F)cc3)cc2)cc1O (centres unmarked) [Example 536]	< 100		
Cc1ccccc1[C@H](CC(=O)O)NC(=O)c1cc(O)n(-c2ccccc2C(F)(F)F)n1 [Example 537]	100 to 1000		
O=C(O)CC(NC(=O)c1cc(O)n(Cc2ccccc2)n1)c1ccc(-c2ccc(F)cc2)cc1 (centres unmarked) [Example 538]			100 to 1000
O=C(O)CC(NC(=O)c1cc(O)n(-c2ccccc2)n1)c1ccc(-c2ccccc2Cl)cc1 (centres unmarked) [Example 539]			100 to 1000
O=C(O)CC(NC(=O)c1cc(O)n(-c2ccccc2Cl)n1)c1ccc(-c2cccc(Cl)c2)cc1 (centres unmarked) [Example 540]			100 to 1000
O=C(O)CC(NC(=O)c1cc(O)n(-c2ccccc2F)n1)c1ccc(-c2cccc(Cl)c2)cc1 (centres unmarked) [Example 541]			100 to 1000
O=C(O)CC(NC(=O)c1cc(O)n(-c2ccccc2F)n1)c1ccc(-c2ccccc2Cl)cc1 (centres unmarked) [Example 542]			< 100
COc1cc(C(=O)NC(CC(=O)O)c2ccc(-c3ccc(F)cc3)cc2)nn1-c1ccccc1F (centres unmarked) [Example 543]			100 to 1000
COc1cc(C(=O)NC(CC(=O)O)c2ccc(-c3ccc(F)cc3)cc2)nn1-c1ccccc1 (centres unmarked) [Example 544]			1000 to 30000
COc1cc(-c2ccccc2)ccc1C(CC(=O)O)NC(=O)c1cc(O)n(-c2ccccc2)n1 (centres unmarked) [Example 545, 3-[(5-Hydroxy-1-phenyl-1H-pyrazole-3-carbonyl)-amino]-3-(3-methoxy-biphenyl-4-yl)-propionic acid]		1110	1000 to 30000
